Test results taken from publication PMC10319809, “Chronic UCN2 treatment desensitizes CRHR2 and improves insulin sensitivity” (Nature Communications, 2023).
Several values for one entry are separate records, joined by “and”; a condition that tells them apart may be missing. Equal entries are not always repeated. Where no end group is shown, it is not given here.

Columns and labels:
soleus muscle = assay: Antisauvagine-30 pre-treatment, [3H]2DG uptake in soleus muscle; type: in vivo, mouse; settings: ASG30 300 ug/kg IP pre-treatment, UCN2 1 mg/kg, insulin 0.75 IU/kg
Method: To determine 2-deoxy-glucose (2DG) uptake in soleus muscle, mice were fasted for 5 h and anaesthetized with isoflurane. Animals were injected IP with 300 ug/kg of ASG30 or an equivalent volume of water. […] 15 min following 2DG administration, blood was collected via intracardiac stick and soleus and gastrocnemius muscles were dissected and snap frozen in liquid nitrogen. Samples were stored at −80 C until processing. Blood was treated with BaOH2 and ZnSO4 and after centrifugation, radioactivity was determined via liquid scintillation counting (Tri-Carb 5110TR, PerkinElmer, Waltham, MA). Tissue was homogenized and mixed with water or BaOH2 and ZnSO4 to determine total and unphosphorylated 2DG content.
(§1) Blood Glucose (mg/dL) +Veh +Veh
(§2) Supplementary Fig. 1. Antisauvagine-30 Blunts Effects of UCN2 on Glucose Uptake.
(§3) (A) Blood glucose during oGTT. Oral glucose gavage occurred at t = 0. At t = -30 animals were
(§4) treated with either Antisauvagine-30 (ASG30) or water. At t = -20 animals were treated with
(§5) either Saline, UCN2 alone, ASG30 alone, or ASG30 and UCN2 together. Mean±SD, n = 6.
(§6) Significance was assessed by one-way ANOVA and Tukey HSD.
(§7) (B) [3H]2-Deoxyglucose uptake by the soleus muscle in insulin-treated or untreated mice, following
(§8) pre-treatment of saline, UCN2, or ASG30 and UCN2. Mean±SD, n = 6.
(§9) Significance was assessed by one-way ANOVA and Tukey HSD. * P < 0.05, ** P < 0.01, *** P < […]

mice = assay: Antisauvagine-30 pre-treatment, oGTT with UCN2; type: in vivo, mouse
Method: For glucose tolerance tests (GTTs), animals were fasted for 8 h with ad libitum access to water. Fasting glucose measurements were taken before 300ug/kg IP dose of ASG30 (Tocris Biosciences, Bristol, UK, Catalog No: 2071) or an equivalent volume of sterile distilled water. 10 min later animals received a 1 mg/kg IP dose of UCN2 or an equivalent volume of saline co-dosed with 300ug/kg of ASG30 or an equivalent volume of water. 20 min later animals received a […] oral glucose dose. Blood glucose measurements were taken via tail nick using the AlphaTRAK 2 Glucose Monitoring System (Zoetis, Parsippany-Troy Hills, NJ) at 10, 30, 60, and 120 min after dose.
as §1, §2, §3, §4, §5, §6, §7, §8, §9

[1] = tested on: CRHR2-expressing HEK293 cells; assay: FAM-UCN2 internalization, fluorescence and live cell imaging of HEK293 cells; type: cell-based, human; settings: HEK293 cells with or without CRHR2, over 24 h
mouse soleus muscle = assay: Ex vivo soleus muscle [3H]2-deoxyglucose uptake; settings: individual muscles
Method: Soleus muscle was removed from fed animals anesthetized by an intraperitoneal injection of pentobarbital (10 mg/100 g body weight). Dissected soleus muscles were suspended at 5 mN of tension in incubation chambers (Model 610/820 M, Danish Myo-Technology, Denmark) containing Krebs-Ringer-Buffer supplemented with 0.1% BSA, 2 mM pyruvate and 8 mM Mannitol. During the entire incubation period the KRB was maintained at 30 °C and oxygenated with 95% O2 and 5% CO2. Following 10 min of pre-incubation muscles were incubated in Krebs buffer +/− 100 nM (−7.0 log[M]) UCN2. At the next time point, 30 min later, muscles were placed in baths containing Krebs buffer +/− 100 nM (−7.0 [M]) UCN2. At the next time point, 15 min later, muscles were placed in baths containing Krebs buffer +/− 100 nM (−7.0 log[M]) UCN2 + /− 60 nM Insulin (Actrapid, Novo Nordisk, Bagsvaerd, Denmark) for 15 min. For the ex vivo glucose uptake studies, 1 mM [^3H]2-deoxyglucose (Perkin-Elmer) and 7 mM [^14C]mannitol (Perkin-Elmer) was also added at this time. Muscles that were in saline in the first bath, saline in the second bath, and saline in the third bath were assigned to the SSS group. Muscles that were in saline in the first bath, saline in the second bath, and UCN2 in the third bath were assigned to the SSU group. Muscles that were in UCN2 in the first bath, saline in the second bath, and UCN2 in the third bath were assigned to the USU group. Muscles that were in saline in the first bath, UCN2 in the second bath, and UCN2 in the third bath were assigned to the SUU group. Following incubation, muscles were harvested, washed in ice-cold KRB and immediately frozen in liquid nitrogen.
Glucose uptake was determined in muscle protein lysates by assessing the accumulation of [^3H]2-deoxyglucose with the use of [^14C]mannitol to correct for the extracellular space. Radioactivity was measured by liquid scintillation counting.

[2] = molecular target: T1, unmodified CRHR2a (corticotropin-releasing hormone receptor 2, alpha isoform) (human) (UniProt Q13324)
T1 sequence: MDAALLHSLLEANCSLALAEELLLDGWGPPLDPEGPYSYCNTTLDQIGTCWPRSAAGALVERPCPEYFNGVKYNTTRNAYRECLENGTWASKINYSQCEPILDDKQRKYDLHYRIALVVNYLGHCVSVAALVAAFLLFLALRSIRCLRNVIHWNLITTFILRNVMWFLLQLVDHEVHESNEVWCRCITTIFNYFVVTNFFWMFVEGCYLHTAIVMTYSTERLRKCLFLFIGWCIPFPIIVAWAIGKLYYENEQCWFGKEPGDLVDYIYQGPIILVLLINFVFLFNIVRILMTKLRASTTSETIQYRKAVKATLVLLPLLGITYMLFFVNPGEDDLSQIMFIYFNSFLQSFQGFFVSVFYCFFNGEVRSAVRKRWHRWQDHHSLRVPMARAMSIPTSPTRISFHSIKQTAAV

**Q.** What does the source list for Antisauvagine-30 [ASG30]?
**A.** insulin-mediated glucose uptake in soleus muscle in vivo (soleus muscle): restored insulin-mediated glucose uptake; glucose tolerance in UCN2-treated animals during oGTT (mice; ASG30 300ug/kg IP pre-treatment): improved glucose tolerance; effect on UCN2-induced blood glucose (mice; ASG30 300ug/kg IP pre-treatment and co-dose with 1 mg/kg UCN2): significantly blunted UCN2’s effects on blood glucose

**Q.** With “FAM-UCN2: Fluorescently labeled UCN2 (IVLSLDVPIGLLQILLEQARARAAREQATTNARILARVGHC; ends and bridges not checked; also: FAM label, position not given here)” as the molecule, how does the “internalization of the labeled ligand” value [1] read?
**A.** internalized in a receptor-dependent manner

**Q.** Which “2DG Uptake” value (mouse soleus muscle; Fig 6C, Vehicle +Insulin) does the source give for Insulin here?
**A.** 2.36 µmol/g/h and 3.79 µmol/g/h and 4.38 µmol/g/h and 3.22 µmol/g/h and 3.39 µmol/g/h

**Q.** And the “2DG Uptake” value (mouse soleus muscle; Fig 6D, Insulin-SSS)?
**A.** 3.619 µmol/g/h and 3.768 µmol/g/h and 3.935 µmol/g/h

**Q.** IVLSLDVPIGLLQILLEQARARAAREQATTNARILARVGHC (ligand) [Urocortin 2 (UCN2)] was tested. Which Gs activation, ebBRET biosensor (Gas-RlucII leaving the plasma membrane), HEK293 cells with increasing UCN2; EC50 of UCN2 [2] did it give?
**A.** 0.1 nM

**Q.** What about the β-Arrestin 1 recruitment, ebBRET effector membrane translocation assay, HEK293 cells with increasing UCN2; EC50 of UCN2 [2] of the same molecule?
**A.** 6.5 nM

**Q.** And the β-Arrestin 2 recruitment, ebBRET effector membrane translocation assay, HEK293 cells with increasing UCN2; EC50 of UCN2 [2]?
**A.** 6.1 nM
